Experimental data published in patent US20040248869A1, “Method for finding novel active ingredients having androgen-type properties” (priority 2001, published 2004).

Experiments:
genital fibroblasts = conditions: Loire et al., Sultan et al.; cited from earlier work
male adult fibroblasts = male adult fibroblasts (cultures 2-6); increase based on the blank value; average of the two measuring conditions
Method: The process may be carried out, for example, as follows: cell suspensions of human fibroblasts (embryonal cells of adult male origin) are mixed with 1 to 2 mg/ml of a collagen suspension. […] After incubation for 7 days at 27° C./5% by volume carbon dioxide in a steam-saturated atmosphere, biopsies are taken and histological sections prepared. The quantity of macromolecules formed can be determined by two different methods:
1. a general determination by coloring the glucosaminoglucans (GAGs) with PAS Alcian Blue (standard coloration) and
2. a specific immunohistochemical characterization of certain elements of the matrix by treatment with antibodies, more especially anti-chondroitin sulfate, anti-keratan sulfate, anti-heparan sulfate, anti-dermatan sulfate, anti-elastin and anti-collagen (type III).
The fibroblasts are examined with a photon microscope in regard to the coloration (PAS Alcian) and with a confocal laser microscope in regard to the immunohistology. In order to determine the quantity of dermal macromolecules formed, micrographs are taken and the zones around the fibroblasts (“perifibroblastic zones”) are analyzed. Counting is done by image analysis, i.e. by determining the perifibroblastic zones and the gray level. Both parameters are directly proportional to the synthesis of dermal macromolecules. The results are evaluated in relation to the corresponding results without addition of the active components.
The numbers represent the increase in %-rel., based on the blank value, i.e. the absence of the male sex hormones, and expressed as the average of the two measuring conditions.

embryonal fibroblasts = assay: Synthesis of dermal macromolecules in fibroblast cultures in collagen gel (embryonal fibroblasts); type: cell-based, human; conditions: increase based on the blank value (absence of hormone), average of the two measuring conditions
human skin cells = conditions: differentiation of human skin cells; cited from earlier work
epidermis = conditions: topical application, axillae of relatively old males; Kligman et al.; cited from earlier work

Structure (SMILES): C[C@]12CCC(=O)C[C@@H]1CC[C@@H]1[C@@H]2CC[C@]2(C)[C@@H](O)CC[C@@H]12 [DHT, dihydrotestosterone]
- DNA or protein distribution in the target cell (genital fibroblasts): does not affect
- Increase in the synthesis of macromolecules: Elastin (male adult fibroblasts): +552 %-rel.
- Increase in the synthesis of macromolecules: Heparan sulfate (male adult fibroblasts): +486 %-rel.

Structure (SMILES): C[C@]12CC[C@H]3[C@@H](CCC4=CC(=O)CC[C@@]43C)[C@@H]1CC[C@@H]2O [T (soluble), testosterone]
- Increase in the synthesis of macromolecules: Chondroitin sulfate (embryonal fibroblasts): +23 %-rel.
- Increase in the synthesis of macromolecules: Collagen (embryonal fibroblasts): +17 %-rel.
- Increase in the synthesis of macromolecules: Elastin (embryonal fibroblasts): +11 %-rel.

Structure (SMILES): C[C@]12CC[C@H]3[C@@H](CCC4=CC(=O)CC[C@@]43C)[C@@H]1CC[C@@H]2O [T, testosterone]
- reduction of granular cells, keratohyalin granules and keratinosomes (human skin cells): does counteract the reduction
- Increase in the synthesis of macromolecules: Chondroitin sulfate (male adult fibroblasts): +537 %-rel.
- Increase in the synthesis of macromolecules: Elastin (male adult fibroblasts): +2753 %-rel.
- Increase in the synthesis of macromolecules: Keratan sulfate (male adult fibroblasts): +83 %-rel.

Structure (SMILES): CCC(=O)O[C@H]1CC[C@H]2[C@@H]3CCC4=CC(=O)CC[C@]4(C)[C@H]3CC[C@]12C [testosterone propionate]
- strength of the epidermis (epidermis): increases the strength of the epidermis
